Measured values taken from the NIST ThermoML archive (doi:10.1021/je060271a).
“And” between values parts separate entries of the source, which are not always exact repeats. Equal entries are not always repeated.

Details: 283.16 K, Liquid, Vibrating tube method

CCCCCC(=O)OCC(COC(=O)CCCCC)(COC(=O)CCCCC)COC(=O)CCCCC [pentaerythritol tetrahexanoate]
Details | mass density
94 kPa | 1004.3 kg/m3
94.1 kPa | 1004.2 kg/m3 and 1004.1 kg/m3
94.2 kPa | 1004.2 kg/m3
94.3 kPa | 1004.2 kg/m3
94.5 kPa | 1004.2 kg/m3 and 1004.1 kg/m3
94.7 kPa | 1004.1 kg/m3
94.8 kPa | 1004.2 kg/m3
95 kPa | 1004.1 kg/m3 and 1004.2 kg/m3
95.2 kPa | 1004.1 kg/m3 and 1004.3 kg/m3
95.4 kPa | 1004.2 kg/m3 and 1004.1 kg/m3
95.5 kPa | 1004.2 kg/m3 and 1004.1 kg/m3
95.9 kPa | 1004.2 kg/m3
96.1 kPa | 1004.2 kg/m3
96.9 kPa | 1004.1 kg/m3
97.1 kPa | 1004.3 kg/m3
97.4 kPa | 1004.3 kg/m3
97.8 kPa | 1004.1 kg/m3
98.1 kPa | 1004.2 kg/m3
98.3 kPa | 1004.4 kg/m3
98.5 kPa | 1004.1 kg/m3
98.6 kPa | 1004.2 kg/m3
99 kPa | 1004.2 kg/m3
99.3 kPa | 1004.2 kg/m3
99.5 kPa | 1004.2 kg/m3
99.7 kPa | 1004.2 kg/m3 and 1004.1 kg/m3
100 kPa | 1004.1 kg/m3 and 1004.2 kg/m3
100.2 kPa | 1004.2 kg/m3 and 1004.3 kg/m3
100.4 kPa | 1004.2 kg/m3
100.5 kPa | 1004.2 kg/m3
100.7 kPa | 1004.1 kg/m3
101 kPa | 1004.2 kg/m3 and 1004.1 kg/m3
101.1 kPa | 1004.2 kg/m3
101.2 kPa | 1004.3 kg/m3 and 1004.1 kg/m3
101.4 kPa | 1004.3 kg/m3 and 1004.1 kg/m3
101.7 kPa | 1004.2 kg/m3
102.2 kPa | 1004.1 kg/m3
102.4 kPa | 1004.2 kg/m3
102.6 kPa | 1004.2 kg/m3 and 1004.1 kg/m3
102.8 kPa | 1004.3 kg/m3
103.1 kPa | 1004.1 kg/m3 and 1004.2 kg/m3
103.3 kPa | 1004.2 kg/m3
103.4 kPa | 1004.1 kg/m3
103.6 kPa | 1004.1 kg/m3
104 kPa | 1004.1 kg/m3 and 1004.3 kg/m3
104.1 kPa | 1004.1 kg/m3
104.3 kPa | 1004.2 kg/m3
104.5 kPa | 1004.1 kg/m3 and 1004.2 kg/m3
105 kPa | 1004.2 kg/m3
105.2 kPa | 1004.1 kg/m3
105.3 kPa | 1004.2 kg/m3
105.5 kPa | 1004.1 kg/m3
105.8 kPa | 1004.2 kg/m3 and 1004.3 kg/m3
106 kPa | 1004.1 kg/m3
106.2 kPa | 1004.2 kg/m3
106.3 kPa | 1004.2 kg/m3
106.4 kPa | 1004.1 kg/m3
106.5 kPa | 1004.2 kg/m3
106.7 kPa | 1004.3 kg/m3
106.9 kPa | 1004.2 kg/m3
107 kPa | 1004.2 kg/m3 and 1004.1 kg/m3
107.2 kPa | 1004.1 kg/m3
107.9 kPa | 1004.2 kg/m3 and 1004.3 kg/m3
108.2 kPa | 1004.2 kg/m3
108.6 kPa | 1004.2 kg/m3
108.7 kPa | 1004.1 kg/m3 and 1004.2 kg/m3
108.9 kPa | 1004.2 kg/m3
109.4 kPa | 1004.2 kg/m3
109.6 kPa | 1004.2 kg/m3
109.8 kPa | 1004.1 kg/m3
109.9 kPa | 1004.2 kg/m3
110.1 kPa | 1004.2 kg/m3
110.3 kPa | 1004.2 kg/m3
110.5 kPa | 1004.1 kg/m3
110.6 kPa | 1004.4 kg/m3 and 1004.2 kg/m3
110.8 kPa | 1004.2 kg/m3
111 kPa | 1004.1 kg/m3
111.1 kPa | 1004.2 kg/m3
111.3 kPa | 1004.2 kg/m3
119.9 kPa | 1004.1 kg/m3
120.5 kPa | 1004.2 kg/m3
120.6 kPa | 1004.1 kg/m3
120.8 kPa | 1004.2 kg/m3
121 kPa | 1004.2 kg/m3 and 1004.1 kg/m3
121.1 kPa | 1004.3 kg/m3
126.7 kPa | 1004.3 kg/m3
126.9 kPa | 1004.4 kg/m3 and 1004.2 kg/m3
127 kPa | 1004.2 kg/m3
127.4 kPa | 1004.3 kg/m3
127.5 kPa | 1004.1 kg/m3
127.7 kPa | 1004.1 kg/m3
128.4 kPa | 1004.2 kg/m3
128.6 kPa | 1004.3 kg/m3
128.8 kPa | 1004.2 kg/m3
129.1 kPa | 1004.2 kg/m3
129.8 kPa | 1004.2 kg/m3 and 1004.1 kg/m3 and 1004.3 kg/m3
130.3 kPa | 1004.2 kg/m3
130.8 kPa | 1004.2 kg/m3 and 1004.1 kg/m3
131.2 kPa | 1004.3 kg/m3
131.5 kPa | 1004.2 kg/m3
131.9 kPa | 1004.2 kg/m3
132 kPa | 1004.3 kg/m3
132.2 kPa | 1004.3 kg/m3
132.4 kPa | 1004.1 kg/m3
132.6 kPa | 1004.2 kg/m3
132.7 kPa | 1004 kg/m3
133.1 kPa | 1004.2 kg/m3
133.4 kPa | 1004.2 kg/m3
133.8 kPa | 1004.2 kg/m3
145.2 kPa | 1004.2 kg/m3
145.6 kPa | 1004.2 kg/m3
146.1 kPa | 1004.2 kg/m3
147 kPa | 1004.2 kg/m3
148.7 kPa | 1004.2 kg/m3
149.2 kPa | 1004.2 kg/m3
149.4 kPa | 1004.2 kg/m3
149.8 kPa | 1004.4 kg/m3
150.1 kPa | 1004.3 kg/m3 and 1004.2 kg/m3
158.8 kPa | 1004.2 kg/m3
159 kPa | 1004.1 kg/m3
159.1 kPa | 1004.2 kg/m3
159.7 kPa | 1004.3 kg/m3
159.8 kPa | 1004.2 kg/m3
160.2 kPa | 1004.3 kg/m3
168.7 kPa | 1004.2 kg/m3
168.9 kPa | 1004.2 kg/m3
169.4 kPa | 1004.2 kg/m3
170.2 kPa | 1004.2 kg/m3
170.6 kPa | 1004.2 kg/m3
171.1 kPa | 1004 kg/m3
171.5 kPa | 1004.2 kg/m3
171.8 kPa | 1004.1 kg/m3
172.3 kPa | 1004.3 kg/m3
172.5 kPa | 1004.3 kg/m3
175.8 kPa | 1004.2 kg/m3
176.7 kPa | 1004.2 kg/m3
177 kPa | 1004.3 kg/m3
177.7 kPa | 1004.2 kg/m3
216.6 kPa | 1004.2 kg/m3
218.2 kPa | 1004.4 kg/m3
218.5 kPa | 1004.3 kg/m3
224.6 kPa | 1004.3 kg/m3
224.9 kPa | 1004.3 kg/m3
225.8 kPa | 1004.2 kg/m3
226.1 kPa | 1004.3 kg/m3
226.8 kPa | 1004.3 kg/m3
